From patent publication US20030040541A1, “Use of bismuth subgallate in inhibition of production of nitric oxide synthase” (Hedonist Biochemical Technologies Co., Ltd., priority 2001, published 2003)

Tested on: RAW 264.7 cells
Assay: NO production (nitrite, Griess reaction) by LPS/IFN-γ activated RAW 264.7 cells
Type: cell-based, mice
Settings: 24 hours
Experimental: The cells of the mice macrophage cell line RAW 264.7 (under accession number CCRC 60001), which was obtained from Cell Culture Research Center, Food Industry Research and Development Institute, Hsinchu, Taiwan, R.O.C., were used for the test.
The RAW 264.7 cells were incubated in a 96 well tissue culture plate (Falcon). After 24 hours, the cells were activated with Dulbecco's Modified Eagle Medium (DMEM, 2014, GibcoBRL) in the presence and absence of 100 ng/ml LPS, 100 U/ml IFN-γ and various concentrations (10 μM, 20 μM, 50 μM, 100 μM and 200 μM) of bismuth subgallate (Hwang et al., 1994, J. Biol. Chem. 269, p. 711-715). After 24 hours, 50 μl of the supernatant from each well was assayed for the presence of nitrite through the Saville modification of the Griess reaction (Green et al., Analytical Biochem, 1982, 126:131-138). The results were represented by the means plus standard errors values (Mean±SE) of three repetitions.
The effect of borneol on the inhibition of NO synthase was tested through the same experimental procedures as described in Example 1. Various concentrations of borneol (0 μM, 40 μM, 80 μM, 160 μM, 320 μM and 640 μM) were used to replace bismuth subgallate of Example 1. The results were represented by the mean values of three repetitions with standard errors (Mean±SE).
The effect of bismuth subgallate in combination with borneol on the inhibition of NO synthase was tested through the similar experimental procedures as described in Example 1. The following concentrations of Bismuth subgallate: 0 μM, 12.5 μM, 25 μM, 50 μM and 100 μM, were combined with the following concentrations of borneol: 0 μM, 10 μM, 20 μM and 40 μM, respectively, to obtain the combinations for the replacement of bismuth subgallate used in Example 1. The results were represented by the mean values of three repetitions with standard errors (Mean±SE).

| Compound | NO production (nitrite concentration in supernatant) (borneol 0, 40, 80, 160, 320, 640 μM, LPS + IFN-γ activated cells, FIG. 2) | NO production (nitrite concentration in supernatant) (bismuth subgallate 10, 20, 50, 100, 200 μM, 100 ng/ml LPS + 100 U/ml IFN-γ, FIG. 1) | concentration dependence of NO production (bismuth subgallate 10-200 μM, LPS + IFN-γ activated cells, FIG. 1) |
| --- | --- | --- | --- |
| CC1(C)C2CCC1(C)C(O)C2 (stereo not drawn) [borneol] | not significantly inhibited | – | – |
| bismuth subgallate | – | showed a reduction in nitrite concentration | inversely proportional to the increase in the concentration of bismuth subgallate |
